Measured values as given in ChEMBL document CHEMBL1201862, “PubChem BioAssay data set” (2004).
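How tested: cells in 96-well plates exposed to compound for 48 hours at five concentrations. GI50 marks 50% less growth.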 Active and inactive are the calls of the source. Rule as the data show it: active = GI50 up to about 1.1 µM and inactive = higher.

Assays:
Assay in all cases: NCI anticancer screen, dose series, 48 h
SK-MEL-28 = tested on: SK-MEL-28
OVCAR-4 = tested on: OVCAR-4
KM12 = tested on: KM12
HT-29 = tested on: HT-29
IGROV-1 = tested on: IGROV-1
K562 = tested on: K562
CCRF-CEM = tested on: CCRF-CEM
UACC-257 = tested on: UACC-257
HOP-62 = tested on: HOP-62
LOX IMVI = tested on: LOX IMVI
HOP-92 = tested on: HOP-92
OVCAR-3 = tested on: OVCAR-3
RPMI-8226 = tested on: RPMI-8226
U-251 = tested on: U-251
HCT-116 = tested on: HCT-116
ACHN = tested on: ACHN
MCF7 = tested on: MCF7
SF-295 = tested on: SF-295
NCI-H460 = tested on: NCI-H460
Malme-3M = tested on: Malme-3M

Measured: GI50

COc1ccc(C(=O)NNC(=O)c2nsc3ccccc23)cc1
inactive: SK-MEL-28 > 100 µM | OVCAR-4 68.9 µM | KM12 > 100 µM | HT-29 61.7 µM | IGROV-1 > 100 µM | K562 39.4 µM | CCRF-CEM 24.7 µM | UACC-257 > 100 µM | HOP-62 44.5 µM | LOX IMVI 58.2 µM | HOP-92 40.1 µM | OVCAR-3 30.8 µM | RPMI-8226 52.5 µM | U-251 41.1 µM | HCT-116 83.6 µM

COc1cc(/C=C2\N=C(c3ccccc3)N(C3Nc4cc5c(cc4S3)NC(N3C(=O)/C(=C/c4cc(OC)c(OC)c(OC)c4)N=C3c3ccccc3)S5)C2=O)cc(OC)c1OC (stereo not drawn)
inactive: ACHN > 100 µM | SK-MEL-28 > 100 µM | OVCAR-4 70.5 µM | MCF7 46.7 µM | KM12 89.3 µM | SF-295 83.6 µM | HT-29 74.6 µM | IGROV-1 > 100 µM | K562 71.9 µM | NCI-H460 13.7 µM | UACC-257 > 100 µM | HOP-62 > 100 µM | LOX IMVI 74.1 µM | HOP-92 > 100 µM | OVCAR-3 61 µM | RPMI-8226 28.8 µM | U-251 45.2 µM | HCT-116 77.6 µM

Cc1ccc(C2CC(c3cccc([N+](=O)[O-])c3)=Nc3ccccc3S2)cc1 (stereo not drawn)
inactive: ACHN 50.1 µM | SK-MEL-28 62.4 µM | Malme-3M > 88.9 µM | OVCAR-4 44.6 µM | KM12 18 µM | SF-295 50.7 µM | HT-29 32.4 µM | IGROV-1 63.8 µM | K562 20.6 µM | CCRF-CEM 23.2 µM | NCI-H460 68.5 µM | UACC-257 34.6 µM | HOP-62 > 62.8 µM | LOX IMVI 21.6 µM | HOP-92 7.01 µM | OVCAR-3 28.5 µM | RPMI-8226 7.83 µM | U-251 27.5 µM | HCT-116 13.3 µM

Cc1n[nH]c(CC#N)n1
inactive: ACHN > 100 µM | OVCAR-4 > 100 µM | MCF7 > 100 µM | KM12 > 100 µM | SF-295 > 100 µM | HT-29 > 100 µM | IGROV-1 > 100 µM | K562 > 100 µM | CCRF-CEM > 100 µM | UACC-257 > 100 µM | HOP-62 > 100 µM | LOX IMVI > 100 µM | HOP-92 > 100 µM | OVCAR-3 > 100 µM | RPMI-8226 > 100 µM | U-251 > 100 µM | HCT-116 > 100 µM

O=C(OCCOC(=O)c1ccc2c(c1)C1(SCCS1)c1ccccc1-2)c1ccc2c(c1)C1(SCCS1)c1ccccc1-2
inactive: ACHN > 100 µM | SK-MEL-28 > 100 µM | Malme-3M > 100 µM | OVCAR-4 > 100 µM | KM12 > 100 µM | SF-295 > 100 µM | HT-29 > 100 µM | IGROV-1 > 100 µM | K562 > 100 µM | CCRF-CEM > 100 µM | NCI-H460 > 100 µM | UACC-257 > 100 µM | HOP-62 > 100 µM | LOX IMVI > 100 µM | OVCAR-3 > 100 µM | RPMI-8226 > 100 µM | U-251 > 100 µM | HCT-116 > 100 µM

CCOC(=O)C1CCn2c(nc3c2c(=O)n(C)c(=O)n3C)S1 (stereo not drawn)
inactive: ACHN > 100 µM | Malme-3M > 100 µM | OVCAR-4 > 100 µM | SF-295 > 100 µM | HT-29 > 100 µM | IGROV-1 > 100 µM | K562 > 100 µM | CCRF-CEM > 100 µM | NCI-H460 > 100 µM | UACC-257 > 100 µM | HOP-62 > 100 µM | LOX IMVI > 100 µM | OVCAR-3 > 100 µM | RPMI-8226 > 100 µM | U-251 > 100 µM | HCT-116 > 100 µM

Cc1cc(=O)oc2c1cc1ccc3cccc4ccc2c1c34
inactive: ACHN 46.7 µM | SK-MEL-28 > 100 µM | Malme-3M > 100 µM | SF-295 40.4 µM | HT-29 > 100 µM | IGROV-1 > 100 µM | K562 > 100 µM | CCRF-CEM > 100 µM | NCI-H460 89.3 µM | LOX IMVI > 100 µM | HOP-92 31.5 µM | OVCAR-3 > 100 µM | RPMI-8226 > 100 µM | U-251 41.2 µM

Cn1c(=O)c(C#N)c(O)c2cc3ccccc3nc21
inactive: ACHN > 100 µM | SK-MEL-28 > 100 µM | Malme-3M > 100 µM | OVCAR-4 > 100 µM | KM12 > 100 µM | SF-295 > 100 µM | IGROV-1 > 100 µM | K562 > 100 µM | CCRF-CEM > 100 µM | NCI-H460 > 100 µM | UACC-257 > 100 µM | LOX IMVI > 100 µM | HOP-92 > 100 µM | RPMI-8226 > 100 µM | U-251 > 100 µM | HCT-116 > 100 µM
